Test results published in US10736883B2, “Triazole furan compounds as agonists of the APJ receptor” (AMGEN INC., priority 2016, dated 2020).

target: APJ receptor (Homo sapiens (Human), UniProt P35414); assay: [35S]GTPγS binding assay on membranes from CHO cells stably expressing human APJ receptor; assay type: biochemical; conditions: membranes of CHO cells stably expressing human APJ receptor, means of several independent experiments, read-out: Activity hAPJ SPA EC50 IP
Outline: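 EC50 values were obtained by non-linear regression of [35S]GTPγS (0.2 nM) binding after 90 min at RT, with nonspecific binding defined by 100 μM GTPγS. Reactions used human APJ–expressing CHO cell membranes on WGA PS beads in HEPES pH 7.5 buffer with 5 mM MgCl2, 200 mM NaCl, 3 μM GDP and 0.1% BSA.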

APJ receptor, sequence (P35414 whole entry): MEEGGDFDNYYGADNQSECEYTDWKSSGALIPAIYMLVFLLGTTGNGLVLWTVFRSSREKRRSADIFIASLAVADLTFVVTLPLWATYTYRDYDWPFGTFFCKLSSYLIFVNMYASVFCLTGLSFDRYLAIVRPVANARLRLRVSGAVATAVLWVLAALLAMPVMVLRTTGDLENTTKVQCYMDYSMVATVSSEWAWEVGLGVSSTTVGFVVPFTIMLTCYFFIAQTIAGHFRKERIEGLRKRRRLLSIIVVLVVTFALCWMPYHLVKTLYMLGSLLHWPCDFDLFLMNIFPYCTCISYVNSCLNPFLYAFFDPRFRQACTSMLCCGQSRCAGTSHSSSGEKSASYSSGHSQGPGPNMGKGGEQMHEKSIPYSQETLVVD

| Compound | EC50 [nM] |
| --- | --- |
| COc1cccc(OC)c1-n1c(NS(=O)(=O)[C@H](C)[C@H](O)c2cccc3nccn23)nnc1-c1ccc(C)o1 (racemic) [Example 306.0, (1R,2R)—N-(4-(2,6-Dimethoxyphenyl)-5-(5-methyl-2-furanyl)-4H-1,2,4-triazol-3-yl)-1-hydroxy-1-imidazo[1,2-a]pyridin-5-yl-2-propanesulfonamide and (1S,2S)—N-(4-(2,6-dimethoxyphenyl)-5-(5-methyl-2-furanyl)-4H-1,2,4-triazol-3-yl)-1-hydroxy-1-imidazo[1,2-a]pyridin-5-yl-2-propanesulfonamide] | 18 |
| COc1cccc(OC)c1-n1c(NS(=O)(=O)[C@H](C)Cc2ncc(F)cn2)nnc1-c1cc(C)c(C)o1 (single isomer, unassigned) [Example 89.0, (R)—N-(4-(2,6-Dimethoxyphenyl)-5-(4,5-dimethylfuran-2-yl)-4H-1,2,4-triazol-3-yl)-1-(5-fluoropyrimidin-2-yl)propane-2-sulfonamide or (S)—N-(4-(2,6-dimethoxyphenyl)-5-(4,5-dimethylfuran-2-yl)-4H-1,2,4-triazol-3-yl)-1-(5-fluoropyrimidin-2-yl)propane-2-sulfonamide] | 1.9 |
| COc1cccc(OC)c1-n1c(NS(=O)(=O)[C@@H](C)[C@H](O)c2cc3n(n2)CCCO3)nnc1-c1ccc(C)o1 (single isomer, unassigned) [Example 292.0, (1R,2S)-1-(6,7-Dihydro-5H-pyrazolo[5,1-b][1,3]oxazin-2-yl)-N-(4-(2,6-dimethoxyphenyl)-5-(5-methyl-2-furanyl)-4H-1,2,4-triazol-3-yl)-1-hydroxy-2-propanesulfonamide or (1S,2R)-1-(6,7-dihydro-5H-pyrazolo[5,1-b][1,3]oxazin-2-yl)-N-(4-(2,6-dimethoxyphenyl)-5-(5-methyl-2-furanyl)-4H-1,2,4-triazol-3-yl)-1-hydroxy-2-propanesulfonamide] | 5.1 |
| COc1cccc(OC)c1-n1c(NS(=O)(=O)[C@H]2C[C@@H](O)CN(c3cncc(C#N)c3)C2)nnc1-c1ccc(C)o1 [Example 334.0, (3S,5R)-1-(5-Cyanopyridin-3-yl)-N-(4-(2,6-dimethoxyphenyl)-5-(5-methylfuran-2-yl)-4H-1,2,4-triazol-3-yl)-5-hydroxypiperidine-3-sulfonamide and (3S,5R)-1-(5-cyanopyridin-3-yl)-N-(4-(2,6-dimethoxyphenyl)-5-(5-methylfuran-2-yl)-4H-1,2,4-triazol-3-yl)-5-hydroxypiperidine-3-sulfonamide] | 0.47 |
| COc1cccc(OC)c1-n1c(NS(=O)(=O)[C@H]2C[C@@H](O)CN(c3cncc(C#N)c3)C2)nnc1-c1ccc(C)o1 (single isomer, unassigned) [Example 325.0, (3S,5R)-1-(5-Cyano-3-pyridinyl)-N-(4-(2,6-dimethoxyphenyl)-5-(5-methyl-2-furanyl)-4H-1,2,4-triazol-3-yl)-5-hydroxy-3-piperidinesulfonamide or (3R,5S)-1-(5-cyano-3-pyridinyl)-N-(4-(2,6-dimethoxyphenyl)-5-(5-methyl-2-furanyl)-4H-1,2,4-triazol-3-yl)-5-hydroxy-3-piperidinesulfonamide] | 0.23 |
| COc1cccc(OC)c1-n1c(NS(=O)(=O)[C@H](C)[C@H](O)c2ccnc3c2OCCC3)nnc1-c1ccc(C)o1 (racemic) [Example 291.0, (1R,2R)-1-(3,4-Dihydro-2H-pyrano[3,2-b]pyridin-8-yl)-N-(4-(2,6-dimethoxyphenyl)-5-(5-methyl-2-furanyl)-4H-1,2,4-triazol-3-yl)-1-hydroxy-2-propanesulfonamide and (1S,2S)-1-(3,4-dihydro-2H-pyrano[3,2-b]pyridin-8-yl)-N-(4-(2,6-dimethoxyphenyl)-5-(5-methyl-2-furanyl)-4H-1,2,4-triazol-3-yl)-1-hydroxy-2-propanesulfonamide] | 5 |
| COc1cccc(OC)c1-n1c(NS(=O)(=O)[C@H](C)[C@@H](O)c2ncc(F)cn2)nnc1-c1ccc(C)o1 (racemic) [Example 96.0, (1R,2S)—N-(4-(2,6-Dimethoxyphenyl)-5-(5-methyl-2-furanyl)-4H-1,2,4-triazol-3-yl)-1-(5-fluoro-2-pyrimidinyl)-1-hydroxy-2-propanesulfonamide and (1S,2R)—N-(4-(2,6-dimethoxyphenyl)-5-(5-methyl-2-furanyl)-4H-1,2,4-triazol-3-yl)-1-(5-fluoro-2-pyrimidinyl)-1-hydroxy-2-propanesulfonamide] | 0.34 |
| COc1cccc(OC)c1-n1c(NS(=O)(=O)CCc2ncc(Cl)cc2C2=CCOCC2)nnc1-c1ccco1 [Example 215.0, 2-(5-Chloro-3-(3,6-dihydro-2H-pyran-4-yl)-2-pyridinyl)-N-(4-(2,6-dimethoxyphenyl)-5-(2-furanyl)-4H-1,2,4-triazol-3-yl)ethanesulfonamide] | 0.22 |
| COc1cccc(OC)c1-n1c(NS(=O)(=O)[C@H](C)[C@H](O)c2oc(C)nc2C)nnc1-c1ccc(C)o1 (racemic) [Example 82.0] | 18 |
| CC[C@H](Cc1ncc(F)cn1)S(=O)(=O)Nc1nnc(-c2ccc(C)o2)n1-c1c(OC)cccc1OC [Example 128.0, (R)-N-(4-(2,6-dimethoxyphenyl)-5-(5-methylfuran-2-yl)-4H-1,2,4-triazol-3-yl)-1-(5-fluoropyrimidin-2-yl)butane-2-sulfonamide and (R)-N-(4-(2,6-dimethoxyphenyl)-5-(5-methylfuran-2-yl)-4H-1,2,4-triazol-3-yl)-1-(5-fluoropyrimidin-2-yl)butane-2-sulfonamide] | 1.1 |
| COc1cccc(OC)c1-n1c(NS(=O)(=O)[C@H](C)[C@@H](O)c2ncn3ccccc23)nnc1-c1ccc(C)o1 (single isomer, unassigned) [Example 270.0, (1R,2S)—N-(4-(2,6-Dimethoxyphenyl)-5-(5-methyl-2-furanyl)-4H-1,2,4-triazol-3-yl)-1-hydroxy-1-imidazo[1,5-a]pyridin-1-yl-2-propanesulfonamide or (1S,2R)—N-(4-(2,6-dimethoxyphenyl)-5-(5-methyl-2-furanyl)-4H-1,2,4-triazol-3-yl)-1-hydroxy-1-imidazo[1,5-a]pyridin-1-yl-2-propanesulfonamide] | 0.56 |
| COc1cccc(OC)c1-n1c(NS(=O)(=O)[C@@H](CCO)[C@H](C)c2ncc(C)cn2)nnc1-c1ccc(C)o1 (racemic) [Example 77.0] | 0.77 |
| (1R,2S)-1-(5-chloro-2-pyrimidinyl)-N-(4-(2,6-dimethoxyphenyl)-5-(5-methyl-2-furanyl)-4H-1,2,4-triazol-3-yl)-1-hydroxy-2-propanesulfonamide or (1S,2R)-1-(5-chloro-2-pyrimidinyl)-N-(4-(2,6-dimethoxyphenyl)-5-(5-methyl-2-furanyl)-4H-1,2,4-triazol-3-yl)-1-hydroxy-2-propanesulfonamide [Example 212.0] | 0.074 |
| CO[C@H](c1ncc(Cl)cn1)[C@H](C)S(=O)(=O)Nc1nnc(-c2ccc(C)o2)n1C(C)C [Example 388.0, (1R,2S)-1-(5-chloropyrimidin-2-yl)-N-(4-isopropyl-5-(5-methylfuran-2-yl)-4H-1,2,4-triazol-3-yl)-1-methoxypropane-2-sulfonamide] | 37 |
| COc1cccc(OC)c1-n1c(NS(=O)(=O)[C@@H](CCO)[C@H](C)c2ncc(C)cn2)nnc1-c1ccc(C)o1 (single isomer, unassigned) [Example 62.0] | 0.22 |
| COc1cccc(OC)c1-n1c(NS(=O)(=O)[C@@H]2CC[C@@H](O)[C@H](O)C2)nnc1-c1ccc(C)o1 (single isomer, unassigned) [Example 406.0] | 67 |
| COc1cccc(OC)c1-n1c(NS(=O)(=O)[C@@H](C)[C@](C)(N)c2ncc(F)cn2)nnc1-c1ccc(C)o1 (single isomer, unassigned) [Example 243.0] | 0.87 |
| COc1cccc(OC)c1-n1c(NS(=O)(=O)[C@H](C)[C@@H](OC)c2ccc(C#N)cc2C#N)nnc1-c1ccc(C)o1 (single isomer, unassigned) [Example 143.0, (1S,2R)-1-(2,4-Dicyanophenyl)-N-(4-(2,6-dimethoxyphenyl)-5-(5-methyl-2-furanyl)-4H-1,2,4-triazol-3-yl)-1-methoxy-2-propanesulfonamide or (1R,2S)-1-(2,4-dicyanophenyl)-N-(4-(2,6-dimethoxyphenyl)-5-(5-methyl-2-furanyl)-4H-1,2,4-triazol-3-yl)-1-methoxy-2-propanesulfonamide] | 0.072 |
| COc1cccc(OC)c1-n1c(NS(=O)(=O)C[C@](C)(F)c2ncc(C#N)cn2)nnc1-c1ccc(C)o1 (single isomer, unassigned) [Example 245.0, (2R)-2-(5-Cyano-2-pyrimidinyl)-N-(4-(2,6-dimethoxyphenyl)-5-(5-methyl-2-furanyl)-4H-1,2,4-triazol-3-yl)-2-fluoro-1-propanesulfonamide or (2S)-2-(5-cyano-2-pyrimidinyl)-N-(4-(2,6-dimethoxyphenyl)-5-(5-methyl-2-furanyl)-4H-1,2,4-triazol-3-yl)-2-fluoro-1-propanesulfonamide] | 0.95 |
| COc1ncnc(OC)c1-n1c(NS(=O)(=O)[C@@H](C)[C@H](C)c2ncc(Cl)cn2)nnc1-c1ccc(C)o1 [Example 383.0, (2S,3R)-3-(5-Chloropyrimidin-2-yl)-N-(4-(4,6-dimethoxypyrimidin-5-yl)-5-(5-methylfuran-2-yl)-4H-1,2,4-triazol-3-yl)butane-2-sulfonamide] | 0.06 |
| COc1cccc(OC)c1-n1c(NS(=O)(=O)CCc2ncc(Cl)cc2CCN2CCOCC2)nnc1-c1ccco1 [Example 239.0, 2-(5-Chloro-3-(2-(4-morpholinyl)ethyl)-2-pyridinyl)-N-(4-(2,6-dimethoxyphenyl)-5-(2-furanyl)-4H-1,2,4-triazol-3-yl)ethanesulfonamide] | 0.6 |
